Test results from patent EP0377521B1, “High yield sodium hydrosulfite generation” (MORTON INTERNATIONAL, INC., priority 1989, dated 1990).

Test: NaBH₄ hydrolysis half-life vs. pH
Format: physicochemical
Conditions: for HALF-LIFE: hydrolysis
Protocol: The pH flow profile becomes significant when related to the hydrolysis rate of the NaBH₄. Referring to the Table set forth below, the half-life of NaBH₄ is 3000 times longer at a pH of 6.0 compared to a pH of 2.5. Therefore, if the BOROL solution is added to a process stream having a pH of 2.5, the extent of the hydrolysis of the NaBH₄ is greater than if the BOROL solution and NaOH are added first to said process stream having a pH of 6.2 and the pH of said process stream is increased to 13.0, where the rate of hydrolysis of NaBH₄ is very slow (42.6 days). TABLE
TEMPERATURE = 25°C (77°F) LOG₁₀ (t½ ) = pH - (0.034 T - 1.92) [formula] t = MINUTES T = °K

`[BH4-].[Na+]` [NaBH₄, sodium borohydride] gave an HALF-LIFE (pH 2.5, 25°C (77°F)) of 2e-06 min, an HALF-LIFE (pH 4.0, 25°C (77°F)) of 6.17e-05 min and an HALF-LIFE (pH 5.0, 25°C (77°F)) of 0.000617 min. It also gave an HALF-LIFE (pH 5.5, 25°C (77°F)) of 0.002 min, an HALF-LIFE (pH 6.0, 25°C (77°F)) of 0.00617 min and an HALF-LIFE (pH 6.5, 25°C (77°F)) of 0.02 min. The HALF-LIFE (pH 7.0, 25°C (77°F)) was 0.0617 min, the HALF-LIFE (pH 8.0, 25°C (77°F)) was 0.613 min and the HALF-LIFE (pH 9.0, 25°C (77°F)) was 6.1 min. The HALF-LIFE (pH 10.0, 25°C (77°F)) was 61 min, the HALF-LIFE (pH 12.0, 25°C (77°F)) was 6190 min and the HALF-LIFE (pH 13.0, 25°C (77°F)) was 61300 min. The “half-life at a pH of 6.0 compared to a pH of 2.5” value (ratio of hydrolysis half-lives, pH 6.0 vs pH 2.5) was 3000 times longer.
